Assay results taken from patent US5654321A, “2-chloro-3-arylamino-1,4-naphthoquinone derivatives, process for preparation thereof and use thereof as an agent for inhibiting platelet aggregation” (Dong Kook Pharmaceutical Co. Ltd., priority 1996, dated 1997).
pIC50: −log10 of the molar value. Entries after “also recorded” stand apart in the source; their conditions may differ. Like-named read-outs stand apart in the source and are kept apart here.

Columns and labels:
rabbit platelet = settings: Ko et al., Thromb. Res. 57, 453-463, 1990; cited from earlier work
washed platelet [1] = assay: Excretion of lactic acid dehydrogenase (LDH) from platelets, cytotoxicity; assay type: cell-based, rat; settings: for Concentration of LDH: NQ-Y15 0.1 mM, Triton X-100 0.1%
From the text: Lactic acid dehydrogenase (LDH) is an enzyme present in cytoplasm of platelets and is excreted from platelet cytoplasm into extracellular fluid when platelet membrane is injured or cytotoxicity such as cytolysis is induced. Accordingly, it was intended to identify whether the compound of the present invention induces the cytotoxicity by quantitatively measuring lactic acid dehydrogenase excreted after the pre-treatment with the compound of the present invention.
To the washed platelet, dimethylsulfoxide(DMSO) (control group) which can dissolve the compound, NQ-Y15, of the present invention, NQ-Y15 or Triton X-100 (0.1%) which can disrupt the cellular membrane was added. Then, this mixture was centrifuged under 12,000×g at room temperature for 2 minutes to separate the supernatant. To the separated supernatant was added a reagent for measuring lactic acid dehydrogenase LD-L10^R (Sigma) and then the excreted lactic acid dehydrogenase was quantitatively analyzed by means of an automated clinical chemistry analyzer SBA300 (Gilford) which can automatically quantitate lactic acid dehydrogenase.

washed platelet [2] = assay: Inhibition of platelet aggregation induced by platelet agonists (aggregometer, light transmission, method of Born); assay type: cell-based, rat; settings: for pIC50: washed platelet, 37° C., read-out: concentration by which the platelet aggregation induced by agonists is reduced by 50%
Experimental: Blood was taken from abdominal aorta of rat using a syringe in which sodium citrate (final content 0.38%) was previously filled, and centrifuged under 160×g at room temperature for 15 minutes to obtain the platelet rich plasma as the supernatant. This platelet rich plasma was centrifuged again under 1500×g for 15 minutes to obtain the precipitate which was then washed three times with a washing buffer solution (129 mM sodium chloride, 0.8 mM dipotassium hydrogenphosphate, 8.9 mM sodium carbonate, 2.8 mM potassium chloride, 0.8 mM magnesium chloride, 5.6 mM glucose, 10 mM N-[2-hydroxyethyl]-piperazine-N'-[2-ethanesulfonic acid], acidity pH 7.4) containing 2 mM ethylenediamine tetraacetic acid to remove protein and calcium from the plasma. This […] was then carefully re-suspended in a modified Tyrode's buffer solution (129 mM sodium chloride, 0.8 mM dipotassium hydrogenphosphate, 8.9 mM sodium carbonate, 2.8 mM potassium chloride, 0.8 mM magnesium chloride, 5.6 mM glucose, 10 mM N-[2-hydroxyethyl]piperazine-N-'-[2-ethanesulfonic acid], acidity pH 7.4) containing 0.35% bovine serum albumin to obtain the washed platelet.
In this experiment, the platelet aggregation ability was determined by measuring a change in light transmission depending on turbidity change by means of an apparatus for measuring platelet aggregation ability (Chronolog Co.: Pennsylvania, Harvertown) according to a method of Born (see, Born, G. V. R., Nature, 194, 927, 1962). As the control, the light transmission degree for the plasma having substantially no platelet was used. 495 μl of the platelet rich plasma prepared in the above (1) was added to a cuvette for aggregometer, which has a silicon-treated surface. This cuvette was pre-treated by inserting it into a cuvette channel which is maintained at 37° C. and retaining for 30 seconds. Then, 2.5 μl of the compound according to the present invention, NQ-Y15 (final concentration 10^-4 M), dissolved in dimethylsulfoxide was added to the cuvette. The reaction was conducted again at 37° C. for 8 minutes. Then, the change in light transmission developed by adding 2.5 μl of thrombin (final concentration 0.5U/ml) thereto was measured for 10 minutes.
In addition, 495 μl of the washed platelet prepared in the above (1) was pre-treated for 30 seconds at 37° C. according to the same procedure as above and then 2.5 μl of the compound according to the present invention, NQ-Y15, dissolved in dimethylsulfoxide was added thereto. This mixture was allowed to react for 8 minutes at 37° C. Then, 2.5 μl of the platelet agonist (thrombin 0.1U/ml, collagen 10 μg/ml or calcium ionophore A23187 having the following formula 2 μM) was added to the reaction mixture to induce the platelet aggregation and then the change in light transmission was measured for 10 minutes. In this experiment, the light transmission degree for Tyrode's buffer solution was used as the control. [drawing 7]
The result was determined by calculating the relative ratio of the light transmission degree obtained in each case to the light transmission degree obtained from treatment only with platelet agonists, which is regarded as 100% aggregation.

[3] = tested on: [14C]-serotonin-loaded platelet (washed platelet); assay: Inhibition of 5-[14C]-serotonin secretion from agonist-activated platelets; assay type: cell-based, rat
From the text: Contrary to other cells, platelets contain numerous granules such as dense granule, α-granule, lysosome and peroxisome, each of which preserves very useful physiological substances. When platelet is activated by any stimulus, substances contained in granules are secreted out of the cells through exocytosis. Particularly, dense granule contains adenine nucleotides such as adenosine diphosphate (ADP), adenosine triphosphate (ATP), etc, calcium, serotonin, etc., which are secreted upon aggregation of platelets and then cause irreversible secondary aggregation. Thus, it can be said that irreversible secondary aggregation induced by ADP, thrombin, etc. is the result of such granule secretion. […]
The inhibitory activity of the compound of the present invention against serotonin secretion was determined using [^14 C]-serotonin-loaded platelet according to the method of Huzoor, et. al. (see, Huzoor-Akbar, Patel, S., Kokrady, S., Witiak, D. T., Newman, H. A. I. and Feller, D. R., Biochem. Pharmacol. 30, 2013-2020, 1981). […] This mixture was then centrifuged under 12,000×g at room temperature for 2 minutes to separate the supernatant from which the radioactivity of 5-[^14 C]-serotonin was measured.

[4] = tested on: washed platelet (thromboxane B2 synthesis); assay: Inhibition of thromboxane A2 production (thromboxane B2 by radioimmunoassay) in collagen-activated platelets; assay type: cell-based, rat; settings: for Thromboxane B2: DMSO + collagen 98.44 ± 11.52, DMSO + saline 0.82 ± 0.22
Experimental: The ability of producing thromboxane A2 was determined as follow according to the method described in literature [see, Ko, F. N., Sheu, S. J., Liu, Y. M., Huang, T. F., and Teng, C. M., Inhibition of rabbit platelet aggregation by 1,4-naphthoquinones, Thromb. Res. 57, 453-463, 1990]. The experiment was conducted in a plastic cuvette containing 0.5 ml of the washed platelet (3×10^8 platelet/ml) while maintaining the temperature at 37° C. First, the washed platelet was pre-treated with the compound of the present invention, NQ-Y15, for 8 minutes and then collagen was added thereto. After incubation for 5 minutes, the reaction was allowed to stop by adding 2 mM ethylenediamine tetraacetic acid and 50 μM indomethacin. This mixture was centrifuged under 12,000×g at room temperature for 2 minutes to separate the supernatant which was then stored at -20° C. Since thromboxane A2 has a unstable structure and therefore, is immediately converted into a stable thromboxane B2, the production of thromboxane B2 as an index for the thromboxane A2 production was measured by radioimmunoassay.

human platelet = settings: Blackwell et al., Thromb. Res. 37, 103-114, 1985; cited from earlier work

For `CC1=C(Cl)C(=O)c2ccccc2C1=O` [2-chloro-3-methyl-1,4-naphthoquinone], the “inhibition of platelet aggregation in rabbit (in words)” value (rabbit platelet) is given as “inhibits the platelet aggregation in rabbit”.

For Triton X-100 [reference compound], the “Concentration of LDH” value (washed platelet [1]; 0 min, DMSO 6.13 ± 1.13) was 426.40 ± 9.64 U/L, the “Concentration of LDH” value (washed platelet [1]; 10 min, DMSO 5.73 ± 2.54) was 443.07 ± 1.27 U/L and the “Concentration of LDH” value (washed platelet [1]; 20 min, DMSO 8.25 ± 1.85) was 444.93 ± 4.97 U/L. For the same compound, the “Concentration of LDH” value (washed platelet [1]; 40 min, DMSO 9.77 ± 1.37) was 442.20 ± 0.87 U/L, the “Concentration of LDH” value (washed platelet [1]; 80 min, DMSO 12.20 ± 1.74) was 443.73 ± 0.37 U/L and the “Concentration of LDH” value (washed platelet [1]; 120 min, DMSO 14.83 ± 1.39) was 443.30 ± 2.53 U/L.

For `N#Cc1ccc(NC2=C(Cl)C(=O)c3ccccc3C2=O)cc1` [NQ-Y15, 2-chloro-3-[(4-cyanophenyl)-amino]-1,4-naphthoquinone], the pIC50 (washed platelet [2]; Rattus norvegicus, Platelet, A23187 2 μM, 8 min pre-treatment (FIG. 3)) was roughly 4.00, the pIC50 (washed platelet [2]; Rattus norvegicus, Platelet, collagen 10 μg/ml, 8 min pre-treatment (FIG. 2)) was roughly 5.15 and the pIC50 (washed platelet [2]; Rattus norvegicus, Platelet, thrombin 0.1U/ml, 8 min pre-treatment (FIG. 1)) was roughly 4.42. For the same compound, the IC100 (washed platelet [2]; Rattus norvegicus, Platelet, agonist not stated, read-out: concentration to completely inhibit the platelet aggregation) was 100 µM, the “inhibition of platelet aggregation induced by platelet agonists (in words)” value (washed platelet [2]; thrombin, collagen and A23187, FIGS. 1 to 3) was “inhibits the platelet aggregation induced by platelet agonists dependent upon its concentration” and the “inhibition of serotonin secretion increased by collagen (in words)” value ([3]; collagen, within concentration range inhibiting platelet aggregation (FIG. 5)) was “inhibits the serotonin secretion”. For the same compound, the “inhibition of serotonin secretion increased by thrombin (in words)” value ([3]; thrombin, within concentration range inhibiting platelet aggregation (FIG. 4)) was “inhibits the serotonin secretion increased by thrombin”, the “Thromboxane B2” value ([4]; NQ-Y15 10 μM + collagen) was 78.33 ± 11.85 ng/mL and the “Thromboxane B2” value ([4]; NQ-Y15 30 μM + collagen) was 15.30 ± 2.84 ng/mL. For the same compound, the “Thromboxane B2” value ([4]; NQ-Y15 50 μM + collagen) was 8.50 ± 1.81 ng/mL, the inhibition at 30 µM ([4]; Rattus norvegicus, Platelet, 30 μM, read-out: inhibitory effect on the increase in thromboxane A2 production induced by collagen) was 15.5% and the inhibition at 50 µM ([4]; Rattus norvegicus, Platelet, 50 μM, read-out: inhibitory effect on the increase in thromboxane A2 production induced by collagen) was 86.3%. The “Concentration of LDH” value (washed platelet [1]; 0 min, DMSO 6.13 ± 1.13) was 2.87 ± 0.12 U/L, the “LDH excretion versus control group / cytotoxicity (in words)” value (washed platelet [1]; 0.1 mM, pre-treated for 120 minutes) was “does not show any significant difference from the control group; also recorded: does not cause a cytotoxicity even at high concentration” and the “Concentration of LDH” value (washed platelet [1]; 10 min, DMSO 5.73 ± 2.54) was 4.57 ± 1.05 U/L. For the same compound, the “Concentration of LDH” value (washed platelet [1]; 20 min, DMSO 8.25 ± 1.85) was 5.47 ± 0.52 U/L, the “Concentration of LDH” value (washed platelet [1]; 40 min, DMSO 9.77 ± 1.37) was 8.47 ± 0.43 U/L and the “Concentration of LDH” value (washed platelet [1]; 80 min, DMSO 12.20 ± 1.74) was 11.55 ± 0.05 U/L. For the same compound, the “Concentration of LDH” value (washed platelet [1]; 120 min, DMSO 14.83 ± 1.39) was 16.67 ± 1.24 U/L.

In the case of `CC1=CC(=O)c2ccccc2C1=O` [vitamin K3, menadione], the “inhibition of platelet aggregation in human being (in words)” value (human platelet) is listed as “has an effect on inhibition of platelet aggregation in human being”.
